According to patent US7410963B2, “Benzo-1,4-diazepin-2-one derivatives as phosphodiesterase PDE2 inhibitors, preparation and therapeutic use thereof” (VIA Pharmaceuticals, Inc., priority 2003, dated 2008):

molecular target: T1, PDE2 (Bos taurus, UniProt P14099); assay: Radioenzymatic phosphodiesterase assay: PDE2 inhibition; assay type: biochemical, bovine; conditions: Table 1; 10 μM test compound; read-out: PDE2 percentage of inhibition at 10 μM
T1 sequence (P14099 1-921): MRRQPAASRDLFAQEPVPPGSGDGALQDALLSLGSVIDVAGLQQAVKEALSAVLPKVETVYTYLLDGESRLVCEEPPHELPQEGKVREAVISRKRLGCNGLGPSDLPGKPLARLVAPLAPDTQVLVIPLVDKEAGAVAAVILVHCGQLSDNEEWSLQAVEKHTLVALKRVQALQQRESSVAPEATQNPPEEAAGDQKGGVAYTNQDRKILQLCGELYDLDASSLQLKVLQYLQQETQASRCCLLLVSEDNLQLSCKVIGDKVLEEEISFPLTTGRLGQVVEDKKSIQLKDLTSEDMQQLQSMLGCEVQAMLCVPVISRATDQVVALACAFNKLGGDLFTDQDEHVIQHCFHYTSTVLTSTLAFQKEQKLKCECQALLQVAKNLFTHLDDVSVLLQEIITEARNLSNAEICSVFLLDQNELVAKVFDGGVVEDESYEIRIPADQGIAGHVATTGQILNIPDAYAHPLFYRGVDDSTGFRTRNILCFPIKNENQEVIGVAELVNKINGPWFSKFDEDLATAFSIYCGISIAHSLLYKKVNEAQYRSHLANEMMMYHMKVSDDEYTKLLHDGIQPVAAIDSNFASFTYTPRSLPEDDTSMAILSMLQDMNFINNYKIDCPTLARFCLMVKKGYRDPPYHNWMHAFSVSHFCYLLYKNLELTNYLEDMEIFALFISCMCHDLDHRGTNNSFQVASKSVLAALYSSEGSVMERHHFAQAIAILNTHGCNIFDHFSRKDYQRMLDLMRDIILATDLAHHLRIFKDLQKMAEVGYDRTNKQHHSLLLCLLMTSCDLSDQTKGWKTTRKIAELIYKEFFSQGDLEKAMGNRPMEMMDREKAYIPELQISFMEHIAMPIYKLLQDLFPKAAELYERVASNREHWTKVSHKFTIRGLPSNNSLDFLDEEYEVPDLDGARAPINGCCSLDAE
Procedure: Nucleoside radioactivity was determined by liquid scintillation.

Structure (SMILES) | inhibition at 10 µM
COc1ccccc1-c1cc2c(cc1OC)N(CCc1ccccc1)C(=O)CN=C2c1cccc(C#N)c1 [Example 38, 3-[8-Methoxy-7-(2-methoxy-phenyl)-2-oxo-1-phenethyl-2,3-dihydro-1H-benzo[e][1,4]diazepin-5-yl]-benzonitrile] | 86%
CN1C(=O)CN=C(c2cccc(Cl)c2)c2cc(-c3ccccc3)ccc21 [Example 40, 5-(3-Chloro-phenyl)-1-methyl-7-phenyl-1,3-dihydro-benzo[e][1,4]diazepin-2-one] | 68%
CN1C(=O)CN=C(c2ccccc2Cl)c2cc(-c3ccccc3)ccc21 [Example 41, 5-(2-Chloro-phenyl)-1-methyl-7-phenyl-1,3-dihydro-benzo[e][1,4]diazepin-2-one] | 34%
CN1C(=O)CN=C(c2ccc(Cl)cc2)c2cc(-c3ccccc3)ccc21 [Example 42, 5-(4-Chloro-phenyl)-1-methyl-7-phenyl-1,3-dihydro-benzo[e][1,4]diazepin-2-one] | 1%
COc1ccccc1C1=NCC(=O)N(C)c2ccc(-c3ccccc3)cc21 [Example 51, 5-(2-Methoxy-phenyl)-1-methyl-7-phenyl-1,3-dihydro-benzo[e][1,4]diazepin-2-one] | 28%
CN1C(=O)CN=C(c2cccc(C#N)c2)c2cc(-c3ccco3)ccc21 [Example 52, 3-[7-(Furan-2-yl)-1-methyl-2-oxo-2,3-dihydro-1H-benzo[e][1,4]diazepin-5-yl]-benzonitrile] | 78%
CN1C(=O)CN=C(c2cc(Cl)cc(Cl)c2)c2cc(-c3ccccc3)ccc21 [Example 55, 5-(3,5-Dichloro-phenyl)-1-methyl-7-phenyl-1,3-dihydro-benzo[e][1,4]diazepin-2-one] | 53%
CN1C(=O)CN=C(c2ccc(Cl)c(Cl)c2)c2cc(-c3ccccc3)ccc21 [Example 56, 5-(3,4-Dichloro-phenyl)-1-methyl-7-phenyl-1,3-dihydro-benzo[e][1,4]diazepin-2-one] | 70%
CN1C(=O)CN=C(c2ccc(F)cc2)c2cc(-c3ccccc3)ccc21 [Example 57, 5-(4-Fluoro-phenyl)-1-methyl-7-phenyl-1,3-dihydro-benzo[e][1,4]diazepin-2-one] | 74%
CC(=O)c1cccc(C2=NCC(=O)N(C)c3ccc(-c4ccccc4)cc32)c1 [Example 58, 5-(3-Acetyl-phenyl)-1-methyl-7-phenyl-1,3-dihydro-benzo[e][1,4]diazepin-2-one] | 91%
CN1C(=O)CN=C(c2cccc(C(F)(F)F)c2)c2cc(-c3ccccc3)ccc21 [Example 59, 1-Methyl-7-phenyl-5-(3-trifluoromethyl-phenyl)-1,3-dihydro-benzo[e][1,4]diazepin-2-one] | 43%
Cc1ccc(C2=NCC(=O)N(C)c3ccc(-c4ccccc4)cc32)cc1[N+](=O)[O-] [Example 60, 1-Methyl-5-(4-methyl-3-nitro-phenyl)-7-phenyl-1,3-dihydro-benzo[e][1,4]diazepin-2-one] | 88%
CN1C(=O)CN=C(c2ccc(OC(F)(F)F)cc2)c2cc(-c3ccccc3)ccc21 [Example 61, 1-Methyl-7-phenyl-5-(4-trifluoromethoxy-phenyl)-1,3-dihydro-benzo[e][1,4]diazepin-2-one] | 31%
COc1cc2c(cc1-c1ccccc1)C(c1cccc(Br)c1)=NCC(=O)N2C [Example 62, 5-(3-Bromo-phenyl)-8-methoxy-1-methyl-7-phenyl-1,3-dihydro-benzo[e][1,4]diazepin-2-one] | 98%
COc1ccc(C2=NCC(=O)N(C)c3ccc(-c4ccccc4)cc32)cc1OC [Example 64, 5-(3,4-Dimethoxy-phenyl)-1-methyl-7-phenyl-1,3-dihydro-benzo[e][1,4]diazepin-2-one] | 79%

same assay, conditions: read-out: PDE2 percentage of inhibition at 10 μM

Structure (SMILES) | inhibition at 10 µM
COc1ccccc1-c1cc2c(cc1OC)N(Cc1ccccc1)C(=O)CN=C2c1cccc(C#N)c1 [Example 39, 3-[1-Benzyl-8-methoxy-7-(2-methoxy-phenyl)-2-oxo-2,3-dihydro-1H-benzo[e][1,4]diazepin-5-yl]-benzonitrile] | 72%
COc1cc2c(cc1-c1ccc(C#N)cc1)C(c1cccc(C#N)c1)=NCC(=O)N2C [Example 43, 3-(8-Methoxy-1-methyl-2-oxo-7-(4-cyanophenyl)-2,3-dihydro-1H-benzo[e][1,4]diazepin-5-yl)-benzonitrile] | 92%
COc1ccccc1-c1cc2c(cc1OC)N(Cc1ccccc1)C(=O)CN=C2c1cccc(C(N)=O)c1 [Example 44, 3-[1-Benzyl-8-methoxy-7-(2-methoxy-phenyl)-2-oxo-2,3-dihydro-1H-benzo[e][1,4]diazepin-5-yl]-benzamide] | 88%
CCCN1C(=O)CN=C(c2cccc(C(N)=O)c2)c2cc(-c3ccccc3OC)c(OC)cc21 [Example 45, 3-[8-Methoxy-7-(2-methoxy-phenyl)-2-oxo-1-propyl-2,3-dihydro-1H-benzo[e][1,4]diazepin-5-yl]-benzamide] | 48%
COc1ccccc1-c1cc2c(cc1OC)N(CCc1ccccc1)C(=O)CN=C2c1cccc(C(N)=O)c1 [Example 46, 3-[8-Methoxy-7-(2-methoxy-phenyl)-2-oxo-1-phenethyl-2,3-dihydro-1H-benzo[e][1,4]diazepin-5-yl]-benzamide] | 78%
CCCCCCN1C(=O)CN=C(c2cccc(C(N)=O)c2)c2cc(-c3ccccc3OC)c(OC)cc21 [Example 47, 3-[1-Hexyl-8-methoxy-7-(2-methoxy-phenyl)-2-oxo-2,3-dihydro-1H-benzo[e][1,4]diazepin-5-yl]-benzamide] | 59%
COc1cc2c(cc1-c1ccc(C(C)=O)cc1)C(c1cccc(C#N)c1)=NCC(=O)N2C [Example 48, 3-[7-(4-Acetylphenyl)-8-methoxy-1-methyl-2-oxo-2,3-dihydro-1H-benzo[e][1,4]diazepin-5-yl]-benzonitrile] | 97%
COc1cc2c(cc1-c1ccc(C(C)=O)cc1)C(c1cccc(C(N)=O)c1)=NCC(=O)N2C [Example 49, 3-[7-(4-Acetylphenyl)-8-methoxy-1-methyl-2-oxo-2,3-dihydro-1H-benzo[e][1,4]diazepin-5-yl]-benzamide] | 99%
COc1ccc(C2=NCC(=O)N(C)c3ccc(-c4ccccc4)cc32)cc1 [Example 50, 5-(4-Methoxy-phenyl)-1-methyl-7-phenyl-1,3-dihydro-benzo[e][1,4]diazepin-2-one] | 95%
COc1ccc(-c2ccc3c(c2)C(c2cccc(C#N)c2)=NCC(=O)N3C)cc1OC [Example 53, 3-[7-(3,4-Dimethoxy-phenyl)-1-methyl-2-oxo-2,3-dihydro-1H-benzo[e][1,4]diazepin-5-yl]-benzonitrile] | 95%
COc1ccc(-c2ccc3c(c2)C(c2cccc(C(N)=O)c2)=NCC(=O)N3C)cc1OC [Example 54, 3-[7-(3,4-Dimethoxy-phenyl)-1-methyl-2-oxo-2,3-dihydro-1H-benzo[e][1,4]diazepin-5-yl]-benzamide] | 94%
COc1cc2c(cc1-c1ccccc1OC(C)C)C(c1cccc(C#N)c1)=NCC(=O)N2C [Example 63, 3-[7-(2-isopropoxy-phenyl)-8-methoxy-1-methyl-2-oxo-2,3-dihydro-1H-benzo[e][1,4]diazepin-5-yl]-benzonitrile] | 98%
